According to US7507860B2 (Pfizer Inc., priority 2004, dated 2009):
Positions count from the first letter of the chain named. Read-outs that look alike come from different tables or passages of the source.

How the values were obtained:
[1] = biological target: T1, human androgen receptor (hAR) (Homo sapiens, UniProt P10275); test: Competitive binding analysis on baculovirus/Sf9 generated hAR extracts with 3H-DHT tracer; settings: hAR extract, 1 nM 3H-DHT, one hour at 4° C; mean of multiple tests; read-out: AR Binding IC50
T1 construct: made in house; host or cells: baculovirus/Sf9 insect cells (crude extract)
T1 sequence (P10275 1-920): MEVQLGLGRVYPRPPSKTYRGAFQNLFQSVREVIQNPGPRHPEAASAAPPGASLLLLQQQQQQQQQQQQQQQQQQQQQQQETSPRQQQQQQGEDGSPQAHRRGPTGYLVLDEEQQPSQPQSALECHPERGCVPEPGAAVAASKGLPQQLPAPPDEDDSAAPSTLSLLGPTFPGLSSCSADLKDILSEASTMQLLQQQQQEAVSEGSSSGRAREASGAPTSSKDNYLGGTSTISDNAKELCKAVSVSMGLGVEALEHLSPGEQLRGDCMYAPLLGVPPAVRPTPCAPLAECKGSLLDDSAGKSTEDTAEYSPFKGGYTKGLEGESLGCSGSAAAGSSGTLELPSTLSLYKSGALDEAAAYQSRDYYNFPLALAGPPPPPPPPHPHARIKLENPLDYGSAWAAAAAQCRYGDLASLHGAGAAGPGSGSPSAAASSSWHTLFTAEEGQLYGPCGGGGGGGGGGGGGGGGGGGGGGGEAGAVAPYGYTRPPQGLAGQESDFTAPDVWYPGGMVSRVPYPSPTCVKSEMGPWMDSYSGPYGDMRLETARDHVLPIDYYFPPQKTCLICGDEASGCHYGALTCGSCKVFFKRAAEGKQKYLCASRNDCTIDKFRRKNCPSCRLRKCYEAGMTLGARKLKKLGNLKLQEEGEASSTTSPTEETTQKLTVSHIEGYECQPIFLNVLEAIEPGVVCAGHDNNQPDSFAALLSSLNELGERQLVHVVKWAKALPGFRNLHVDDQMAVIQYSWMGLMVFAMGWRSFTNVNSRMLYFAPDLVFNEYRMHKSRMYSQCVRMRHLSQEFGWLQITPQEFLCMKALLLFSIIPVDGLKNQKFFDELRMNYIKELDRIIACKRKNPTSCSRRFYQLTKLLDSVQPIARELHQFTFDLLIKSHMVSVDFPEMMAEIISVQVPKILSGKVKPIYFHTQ
Description: The compounds of Formula I have affinity for the androgen receptor. […] The description below describes how the assay was carried out.
Competitive binding analysis was performed on baculovirus/Sf9 generated hAR extracts in the presence or absence of different concentrations of test agent and a fixed concentration of ^3H-dihydrotestosterone (^3H-DHT) as tracer. This binding assay method is a modification of a protocol previously described (Liao S., et. al. J. Steroid Biochem. 20:11-17 1984). Briefly, progressively decreasing concentrations of compounds are incubated in the presence of hAR extract (Chang et al. P.N.A.S. Vol. 89, pp. […], 1992), hydroxylapatite, and 1 nM^3H-DHT for one hour at 4° C. Subsequently, the binding reactions are washed three times to completely remove excess unbound ^3H-DHT. hAR bound ^3H-DHT levels are determined in the presence of compounds (=i.e competitive binding) and compared to levels bound when no competitor is present (=i.e. maximum binding). Compound binding affinity to the hAR is expressed as the concentration of compound at which one half of the maximum binding is inhibited. Table II below provides the results that were obtained for selected compounds (reported data is the mean of multiple tests as shown below)

androgen receptor = biological target: T2, androgen receptor (Homo sapiens, UniProt P10275); test: AR antagonist cell assay (MDA-MB453-MMTV clone 54-19 luciferase reporter, 100 pM DHT); type: cell-based
T2 sequence (P10275 1-920 Q868H): T1 sequence (P10275 1-920) with Q868H
Description: The compounds ability to antagonize the effects of androgen on the androgen receptor were determined in a whole cell assay as described immediately below.
Experimental Procedure for AR Antagonist Cell Assay
This cell line is a stable transfected cell line with MDA-MB453 cell background (a human breast tumor cell line expressing androgen receptor). A MMTV minimal promoter containing ARE was first cloned in front of a firefly luciferase reporter gene. Then the cascade was cloned into transfection vector pUV120puro. […] Puromycin resistant stable cell line was selected. Cell Culture Media and Reagents:
Plating medium: DMEM (phenol red free), 10% charcoal treated HyClone serum, 1% L-glutamine
Assay medium: DMEM (phenol red free), 1% charcoal treated HyClone serum, 1% L-glutamine, and 1% penicillin/streptomycin
• 1. Cells are maintained in culture medium, splitting cells when they reach 80-90% confluence • 2. To test compounds, 10,000 cells/well are plated to opaque 96 cell culture plate in 100 ul/well plating medium, culture for overnight at 37° C. in cell culture incubator • 3. […] Add 10 ul/well freshly prepared DHT (final concentration at 100 pM) to each well, incubate at 37° C. for 17 hr (overnight) • 5.
The results are reported as the mean of multiple tests as described below (the numbers of tests are indicated in the footnote). N.D. denotes that the compound was not tested.

[2] = MDA-MB453-MMTV clone 54-19, inhibition of 100 pM DHT induction, 17 hr; mean of multiple tests; read-out: AR Cell IC50

## CC(C)CC(Oc1ccc(C#N)c(C(F)(F)F)c1)C(=O)N[C@H](C)c1ccc(O)cc1 (stereo in doubt) [Example 117, 2-(4-Cyano-3-trifluoromethyl-phenoxy)-4-methyl-pentanoic acid [1-(4-hydroxy-phenyl)-ethyl]-amide]
[1]
  IC50: 114 nM
Androgen receptor; read-out: AR Cell IC50; MDA-MB453-MMTV clone 54-19, inhibition of 100 pM DHT induction, 17 hr; mean of multiple tests
  IC50: 19 nM

## CCCC(Oc1ccc(C#N)c(C(F)(F)F)c1)C(=O)N[C@@H](C)c1ccc(O)cc1 (stereo in doubt) [Example 118, 2-(4-Cyano-3-trifluoromethyl-phenoxy)-pentanoic acid [1-(4-hydroxy-phenyl)-ethyl]-amide]
[1]
  IC50: 1010 nM
Androgen receptor; [2]
  IC50: 589 nM

## CCCC(Oc1ccc(C#N)c(C(F)(F)F)c1)C(=O)N[C@H](C)c1ccc(O)cc1 (stereo in doubt) [Example 119, 2-(4-Cyano-3-trifluoromethyl-phenoxy)-pentanoic acid [1-(4-hydroxy-phenyl)-ethyl]-amide]
[1]
  IC50: 86 nM
Androgen receptor; [2]
  IC50: 117 nM

## CC(C)CC(Oc1ccc(C#N)c(C(F)(F)F)c1)C(=O)N[C@@H](C)c1ccc(O)cc1 (stereo in doubt) [Example 120, 2-(4-Cyano-3-trifluoromethyl-phenoxy)-4-methyl-pentanoic acid [1-(4-hydroxy-phenyl)-ethyl]-amide]
[1]
  IC50: 98 nM
Androgen receptor; [2]
  IC50: 44 nM

## COc1ccc([C@H](C)NC(=O)C(CC(C)C)Oc2ccc(C#N)c(C(F)(F)F)c2)cc1 (stereo in doubt) [Example 121, 2-(4-Cyano-3-trifluoromethyl-phenoxy)-4-methyl-pentanoic acid [1-(4-methoxy-phenyl)-ethyl]-amide]
[1]
  IC50: 145 nM
Androgen receptor; [2]
  IC50: 157 nM

## CCCC(Oc1ccc(C#N)c(C(F)(F)F)c1)C(=O)N[C@H](C)c1ccc(OC)cc1 (stereo in doubt) [Example 123, 2-(4-Cyano-3-trifluoromethyl-phenoxy)-pentanoic acid [1-(4-methoxy-phenyl)-ethyl]-amide]
[1]
  IC50: 653 nM
Androgen receptor; [2]
  IC50: 681 nM

## CC(C)CC(Oc1ccc(C#N)c(C(F)(F)F)c1)C(=O)NC(C)C (stereo not shown) [Example 2, 2-(4-Cyano-3-trifluoromethyl-phenoxy)-4-methyl-pentanoic acid isopropylamide]
[1]
  IC50: 64 nM
Androgen receptor; [2]
  IC50: 142 nM

## CCCC(Oc1ccc(C#N)c(C(F)(F)F)c1)C(=O)NCC (stereo not shown) [Example 5, 2-(4-Cyano-3-trifluoromethyl-phenoxy)-pentanoic acid ethylamide]
[1]
  IC50: 277 nM
Androgen receptor; [2]
  IC50: > 1000 nM

## CC(C)CC(Oc1ccc(C#N)c(C(F)(F)F)c1)C(=O)NCC1CC1 (stereo not shown) [Example 7, 2-(4-Cyano-3-trifluoromethyl-phenoxy)-4-methyl-pentanoic acid cyclopropylmethyl-amide]
[1]
  IC50: 107 nM
Androgen receptor; [2]
  IC50: 661 nM

## CC(C)CNC(=O)C(CC(C)C)Oc1ccc(C#N)c(C(F)(F)F)c1 (stereo not shown) [Example 8, 2-(4-Cyano-3-trifluoromethyl-phenoxy)-4-methyl-pentanoic acid isobutyl-amide]
[1]
  IC50: 58 nM
Androgen receptor; [2]
  IC50: 534 nM

## COc1ccc(CCNC(=O)C(CC(C)C)Oc2ccc(C#N)c(C(F)(F)F)c2)cc1 (stereo not shown) [Example 9, 2-(4-Cyano-3-trifluoromethyl-phenoxy)-4-methyl-pentanoic acid [2-(4-methoxyphenyl)-ethyl]-amide]
[1]
  IC50: 163 nM
Androgen receptor; [2]
  IC50: > 1000 nM

## CC(C)CC(Oc1ccc(C#N)c(C(F)(F)F)c1)C(=O)NCCOc1ccccc1 (stereo not shown) [Example 10, 2-(4-Cyano-3-trifluoromethyl-phenoxy)-4-methyl-pentanoic acid (2-phenoxyethyl)-amide]
[1]
  IC50: 91 nM
Androgen receptor; [2]
  IC50: > 1000 nM

## CC(C)CC(Oc1ccc(C#N)c(C(F)(F)F)c1)C(=O)NCc1ccco1 (stereo not shown) [Example 11, 2-(4-Cyano-3-trifluoromethyl-phenoxy)-4-methyl-pentanoic acid (furan-2-yl-methyl)-amide]
[1]
  IC50: 172 nM
Androgen receptor; [2]
  IC50: > 1000 nM

## CC(C)CC(Oc1ccc(C#N)c(C(F)(F)F)c1)C(=O)NCc1cccs1 (stereo not shown) [Example 12, 2-(4-Cyano-3-trifluoromethyl-phenoxy)-4-methyl-pentanoic acid (thiophen-2-yl-methyl)-amide]
[1]
  IC50: 86 nM
Androgen receptor; [2]
  IC50: > 1000 nM

## CC(C)CC(Oc1ccc(C#N)c(C(F)(F)F)c1)C(=O)NC(C)c1cccs1 (stereo not shown) [Example 13, 2-(4-Cyano-3-trifluoromethyl-phenoxy)-4-methyl-pentanoic acid (1-thiophen-2-ylethyl)-amide]
[1]
  IC50: 240 nM
Androgen receptor; [2]
  IC50: 398 nM

## CC(C)CC(Oc1ccc(C#N)c(C(F)(F)F)c1)C(=O)NC(C)c1cccnc1 (stereo not shown) [Example 15, 2-(4-Cyano-3-trifluoromethyl-phenoxy)-4-methyl-pentanoic acid (1-pyridin-3-ylethyl)-amide]
[1]
  IC50: 309 nM
Androgen receptor; [2]
  IC50: > 1000 nM

## CCCC(Oc1ccc(C#N)c(C(F)(F)F)c1)C(=O)NC(C)Cc1ccsc1 (stereo not shown) [Example 18, 2-(4-Cyano-3-trifluoromethyl-phenoxy)-pentanoic acid (1-methyl-2-thiophen-3-ylethyl)-amide]
[1]
  IC50: 222 nM
Androgen receptor; [2]
  IC50: 815 nM

## CC(C)CC(Oc1ccc(C#N)c(C(F)(F)F)c1)C(=O)NCc1cccnc1 (stereo not shown) [Example 19, 2-(4-Cyano-3-trifluoromethyl-phenoxy)-4-methyl-pentanoic acid (pyridin-3-yl-methyl)-amide]
[1]
  IC50: 131 nM
Androgen receptor; [2]
  IC50: > 1000 nM

## CCCC(Oc1ccc(C#N)c(C(F)(F)F)c1)C(=O)Nc1ccc(C)c(O)c1 (stereo not shown) [Example 116, 2-(4-Cyano-3-trifluoromethyl-phenoxy)-pentanoic acid (3-hydroxy-4-methyl-phenyl)-amide]
[1]
  IC50: 296 nM
